Assay results: patent US20240327364A1, “THERAPEUTIC TARGETING OF GPR68 TO INDUCE FERROPTOSIS” (University Of Maryland, Baltimore, priority 2023, published 2024)

Legend:
LPS-induced ALI = assay: LPS-induced acute lung injury; type: in vivo, mice; settings: LPS 0.7 mg/kg intratracheally; compounds intraperitoneally
From the text: PMN (polymorphonuclear neutrophils).

AAK1 = target: T1, AAK1 (Homo sapiens, UniProt Q2M2I8); assay: KinomeScan; type: binding; settings: read-out: % Control
T1 construct: purchased DiscoveRx

AKT2 = target: T2, AKT2 (Homo sapiens, UniProt P31751); assay: KinomeScan; type: binding; settings: read-out: % Control
T2 construct: purchased DiscoveRx (Fremont, CA)

BLK = target: T3, BLK (Homo sapiens, UniProt P51451); assay: KinomeScan; type: binding; settings: read-out: % Control
T3 construct: purchased DiscoveRx (Fremont, CA)

CSNK1E = CSNK1E (Homo sapiens, UniProt P49674); assay: KinomeScan; type: binding; settings: read-out: % Control
DMPK = target: T4, DMPK (Homo sapiens, UniProt Q09013); assay: KinomeScan; type: binding; settings: read-out: % Control
T4 construct: purchased DiscoveRx (Fremont, CA), KinomeScan service

EPHA8 = target: T5, EPHA8 (Homo sapiens, UniProt P29322); assay: KinomeScan; type: binding; settings: read-out: % Control
T5 construct: purchased DiscoveRx (Fremont, CA)

FLT3(D835H) = target: T6, FLT3(D835H) (Homo sapiens, UniProt P36888, D835H); assay: KinomeScan; type: binding; settings: read-out: % Control
T6 construct: purchased DiscoveRx (Fremont, CA)

GSK3A = target: T7, GSK3A (Homo sapiens, UniProt P49840); assay: KinomeScan; type: binding; settings: read-out: % Control
T7 construct: purchased DiscoveRx (Fremont, CA)

HIPK1 = target: T8, HIPK1 (Homo sapiens, UniProt Q86Z02); assay: KinomeScan; type: binding; settings: read-out: % Control
T8 construct: purchased DiscoveRx (Fremont, CA)
T8 sequence (Q86Z02 whole entry): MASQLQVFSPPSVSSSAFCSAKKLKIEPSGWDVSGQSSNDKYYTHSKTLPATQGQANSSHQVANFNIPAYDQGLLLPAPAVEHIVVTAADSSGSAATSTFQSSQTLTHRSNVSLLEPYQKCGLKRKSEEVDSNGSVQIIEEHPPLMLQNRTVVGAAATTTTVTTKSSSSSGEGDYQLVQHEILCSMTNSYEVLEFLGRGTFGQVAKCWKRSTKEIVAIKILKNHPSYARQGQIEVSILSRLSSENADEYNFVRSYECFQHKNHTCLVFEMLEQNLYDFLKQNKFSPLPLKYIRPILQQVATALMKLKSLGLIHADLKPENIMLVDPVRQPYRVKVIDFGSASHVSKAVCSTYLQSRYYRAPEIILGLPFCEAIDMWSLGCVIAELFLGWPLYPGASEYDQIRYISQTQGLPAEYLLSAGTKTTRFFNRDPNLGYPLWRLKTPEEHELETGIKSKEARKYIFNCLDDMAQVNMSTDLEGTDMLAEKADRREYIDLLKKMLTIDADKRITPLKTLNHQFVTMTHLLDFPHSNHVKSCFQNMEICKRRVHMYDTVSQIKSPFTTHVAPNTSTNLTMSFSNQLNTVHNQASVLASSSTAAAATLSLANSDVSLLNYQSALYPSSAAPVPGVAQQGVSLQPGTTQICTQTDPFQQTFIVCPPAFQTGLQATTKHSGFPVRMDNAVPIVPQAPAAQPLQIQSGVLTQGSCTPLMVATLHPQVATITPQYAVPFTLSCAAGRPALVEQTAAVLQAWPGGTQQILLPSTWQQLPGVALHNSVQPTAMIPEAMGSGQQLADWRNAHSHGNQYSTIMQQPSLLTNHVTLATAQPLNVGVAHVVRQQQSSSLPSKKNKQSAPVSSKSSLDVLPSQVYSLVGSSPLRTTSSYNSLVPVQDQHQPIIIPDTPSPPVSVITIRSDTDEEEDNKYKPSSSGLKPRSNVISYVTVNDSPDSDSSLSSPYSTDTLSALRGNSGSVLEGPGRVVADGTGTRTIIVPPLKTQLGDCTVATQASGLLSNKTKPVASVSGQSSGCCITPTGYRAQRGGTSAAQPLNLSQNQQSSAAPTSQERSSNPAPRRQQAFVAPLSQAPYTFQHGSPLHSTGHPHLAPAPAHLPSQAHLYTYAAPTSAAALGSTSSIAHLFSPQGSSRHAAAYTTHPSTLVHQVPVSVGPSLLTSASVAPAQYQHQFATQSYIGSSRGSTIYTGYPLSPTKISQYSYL

KIT(D816H) = target: T9, KIT(D816H) (Homo sapiens, UniProt P10721, D816H); assay: KinomeScan; type: binding; settings: read-out: % Control
T9 construct: purchased DiscoveRx

KIT(D816V) = target: T10, KIT(D816V) (Homo sapiens, UniProt P10721, D816V); assay: KinomeScan; type: binding; settings: read-out: % Control
T10 construct: purchased DiscoveRx

OSR1 = target: T11, OSR1 (Homo sapiens, UniProt O95747); assay: KinomeScan; type: binding; settings: read-out: % Control
T11 construct: purchased DiscoveRx
T11 sequence (O95747 whole entry): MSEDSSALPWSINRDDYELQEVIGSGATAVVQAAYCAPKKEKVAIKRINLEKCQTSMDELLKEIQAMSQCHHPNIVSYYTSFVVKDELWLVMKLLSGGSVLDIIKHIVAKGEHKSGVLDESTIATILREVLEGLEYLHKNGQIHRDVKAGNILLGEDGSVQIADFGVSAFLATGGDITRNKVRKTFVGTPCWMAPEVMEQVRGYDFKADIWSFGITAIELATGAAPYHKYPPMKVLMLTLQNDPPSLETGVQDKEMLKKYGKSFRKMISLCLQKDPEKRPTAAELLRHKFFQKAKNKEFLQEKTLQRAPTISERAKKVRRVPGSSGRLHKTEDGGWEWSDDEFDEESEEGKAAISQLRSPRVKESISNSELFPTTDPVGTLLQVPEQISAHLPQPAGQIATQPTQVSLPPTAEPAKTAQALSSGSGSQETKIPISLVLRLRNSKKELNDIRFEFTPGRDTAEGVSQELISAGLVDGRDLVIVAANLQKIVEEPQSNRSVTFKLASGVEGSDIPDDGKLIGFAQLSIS

p38-gamma = target: T12, p38-gamma (Homo sapiens, UniProt P53778); assay: KinomeScan; type: binding; settings: read-out: % Control
T12 construct: purchased DiscoveRx

PDGFRA = target: T13, PDGFRA (Homo sapiens, UniProt P16234); assay: KinomeScan; type: binding; settings: read-out: % Control
T13 construct: purchased DiscoveRx (Fremont, CA)

PKN1 = target: T14, PKN1 (Homo sapiens, UniProt Q16512); assay: KinomeScan; type: binding; settings: read-out: % Control
T14 construct: purchased DiscoveRx (Fremont, CA)

PLK1 = target: T15, PLK1 (Homo sapiens, UniProt P53350); assay: KinomeScan; type: binding; settings: read-out: % Control
T15 construct: purchased DiscoveRx (Fremont, CA)

[1] = target: T16, RPS6KA5(Kin.Dom.1-N-terminal) (Homo sapiens, UniProt O75582); assay: KinomeScan; type: binding; settings: read-out: % Control
T16 construct: RPS6KA5(Kin.Dom.1-N-terminal); purchased DiscoveRx (Fremont, CA)
T16 sequence (O75582 49-318 limits assumed): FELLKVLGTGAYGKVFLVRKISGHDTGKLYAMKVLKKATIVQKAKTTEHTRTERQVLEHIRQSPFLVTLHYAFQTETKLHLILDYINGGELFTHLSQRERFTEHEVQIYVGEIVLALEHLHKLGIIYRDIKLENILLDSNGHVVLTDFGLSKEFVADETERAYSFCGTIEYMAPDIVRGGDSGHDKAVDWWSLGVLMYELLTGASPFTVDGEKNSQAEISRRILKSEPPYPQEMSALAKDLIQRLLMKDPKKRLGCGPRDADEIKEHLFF

SRC = target: T17, SRC (Homo sapiens, UniProt P12931); assay: KinomeScan; type: binding; settings: read-out: % Control
T17 construct: purchased DiscoveRx (Fremont, CA)

TIE2 = target: T18, TIE2 (Homo sapiens, UniProt Q02763); assay: KinomeScan; type: binding; settings: read-out: % Control
T18 construct: purchased DiscoveRx (Fremont, CA)

TSSK1B = target: T19, TSSK1B (Homo sapiens, UniProt Q9BXA7); assay: KinomeScan; type: binding; settings: read-out: % Control
T19 construct: purchased DiscoveRx (Fremont, CA)
T19 sequence (Q9BXA7 whole entry): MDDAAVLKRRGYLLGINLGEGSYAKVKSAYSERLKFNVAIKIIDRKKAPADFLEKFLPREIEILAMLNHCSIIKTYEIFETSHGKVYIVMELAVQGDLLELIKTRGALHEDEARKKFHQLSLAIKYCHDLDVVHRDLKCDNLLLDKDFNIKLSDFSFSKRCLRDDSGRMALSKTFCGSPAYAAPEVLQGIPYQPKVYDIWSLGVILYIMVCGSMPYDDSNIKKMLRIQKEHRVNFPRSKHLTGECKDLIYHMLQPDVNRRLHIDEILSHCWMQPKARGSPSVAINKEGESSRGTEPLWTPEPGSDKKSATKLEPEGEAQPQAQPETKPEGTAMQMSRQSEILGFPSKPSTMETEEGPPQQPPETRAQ

5-HT4B = target: T20, 5-HT4B (Homo sapiens, UniProt Q13639); assay: GPCR Profiler; type: cell-based
T20 construct: host or cells: Chem-1 cells with promiscuous Gα15
T20 sequence (Q13639 whole entry): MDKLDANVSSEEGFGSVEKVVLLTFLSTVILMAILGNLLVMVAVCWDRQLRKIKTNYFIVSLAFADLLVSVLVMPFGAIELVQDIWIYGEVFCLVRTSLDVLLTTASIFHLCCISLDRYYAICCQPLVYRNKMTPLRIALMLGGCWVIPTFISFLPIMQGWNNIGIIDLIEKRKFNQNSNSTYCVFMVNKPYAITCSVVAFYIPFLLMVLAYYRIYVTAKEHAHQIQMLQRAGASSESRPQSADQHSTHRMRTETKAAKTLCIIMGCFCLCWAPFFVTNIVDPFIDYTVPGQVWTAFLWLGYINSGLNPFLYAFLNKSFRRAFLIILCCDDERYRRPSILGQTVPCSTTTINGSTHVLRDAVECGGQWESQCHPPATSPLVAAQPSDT

BLY1 = target: T21, BLY1 (Homo sapiens, UniProt Q15722); assay: GPCR Profiler; type: cell-based
T21 construct: host or cells: Chem-1 cells with promiscuous Gα15
T21 sequence (Q15722 whole entry): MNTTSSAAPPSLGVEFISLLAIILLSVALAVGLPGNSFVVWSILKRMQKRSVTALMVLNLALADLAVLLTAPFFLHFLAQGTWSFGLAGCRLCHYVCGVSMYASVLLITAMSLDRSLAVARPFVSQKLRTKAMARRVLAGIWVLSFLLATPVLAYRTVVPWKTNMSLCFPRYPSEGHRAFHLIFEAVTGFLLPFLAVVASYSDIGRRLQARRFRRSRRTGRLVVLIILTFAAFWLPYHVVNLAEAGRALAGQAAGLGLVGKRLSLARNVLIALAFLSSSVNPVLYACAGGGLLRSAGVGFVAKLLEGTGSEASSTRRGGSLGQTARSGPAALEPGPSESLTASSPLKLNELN

C5aR = target: T22, C5aR (Homo sapiens, UniProt P21730); assay: GPCR Profiler; type: cell-based
T22 construct: host or cells: Chem-1 cells with promiscuous Gα15
T22 sequence (P21730 whole entry, species assumed): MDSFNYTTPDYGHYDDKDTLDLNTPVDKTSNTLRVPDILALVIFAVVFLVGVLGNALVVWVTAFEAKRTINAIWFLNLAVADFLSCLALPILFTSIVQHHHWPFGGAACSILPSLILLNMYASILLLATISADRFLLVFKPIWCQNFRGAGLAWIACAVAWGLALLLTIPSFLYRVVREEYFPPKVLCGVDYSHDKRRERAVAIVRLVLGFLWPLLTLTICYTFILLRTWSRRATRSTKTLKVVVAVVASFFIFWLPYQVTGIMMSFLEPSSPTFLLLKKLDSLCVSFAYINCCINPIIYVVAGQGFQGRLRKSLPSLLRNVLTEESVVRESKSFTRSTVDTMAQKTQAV

CXCR1 = target: T23, CXCR1 (Homo sapiens, UniProt P25024); assay: GPCR Profiler; type: cell-based
T23 construct: host or cells: Chem-1 cells with Gα15
T23 sequence (P25024 whole entry, species assumed): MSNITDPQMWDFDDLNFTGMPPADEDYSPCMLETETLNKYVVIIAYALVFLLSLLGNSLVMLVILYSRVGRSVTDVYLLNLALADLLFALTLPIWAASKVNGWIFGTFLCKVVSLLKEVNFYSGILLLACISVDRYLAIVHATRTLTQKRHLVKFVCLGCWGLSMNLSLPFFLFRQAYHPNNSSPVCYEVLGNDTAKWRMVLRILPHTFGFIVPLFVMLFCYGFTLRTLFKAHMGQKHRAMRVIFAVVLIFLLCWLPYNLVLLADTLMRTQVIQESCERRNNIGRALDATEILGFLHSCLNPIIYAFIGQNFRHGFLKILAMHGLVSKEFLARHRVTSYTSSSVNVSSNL

GnRH = target: T24, GnRH (Homo sapiens, UniProt P30968); assay: GPCR Profiler; type: cell-based
T24 construct: host or cells: Chem-1 cells expressing Gα15
T24 sequence (P30968 whole entry): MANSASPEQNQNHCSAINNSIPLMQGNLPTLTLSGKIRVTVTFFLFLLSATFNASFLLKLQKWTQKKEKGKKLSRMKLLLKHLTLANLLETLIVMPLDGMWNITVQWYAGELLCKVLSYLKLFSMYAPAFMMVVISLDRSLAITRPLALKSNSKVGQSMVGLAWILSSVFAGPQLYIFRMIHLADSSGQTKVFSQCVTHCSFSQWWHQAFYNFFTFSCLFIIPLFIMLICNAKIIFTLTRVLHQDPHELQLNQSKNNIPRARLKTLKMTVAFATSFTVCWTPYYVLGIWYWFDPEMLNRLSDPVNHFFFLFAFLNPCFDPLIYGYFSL

H2 = target: T25, H2 (Homo sapiens, UniProt P25021); assay: GPCR Profiler; type: cell-based
T25 construct: host or cells: Chem-1 cells with promiscuous Gα15
T25 sequence (P25021 whole entry): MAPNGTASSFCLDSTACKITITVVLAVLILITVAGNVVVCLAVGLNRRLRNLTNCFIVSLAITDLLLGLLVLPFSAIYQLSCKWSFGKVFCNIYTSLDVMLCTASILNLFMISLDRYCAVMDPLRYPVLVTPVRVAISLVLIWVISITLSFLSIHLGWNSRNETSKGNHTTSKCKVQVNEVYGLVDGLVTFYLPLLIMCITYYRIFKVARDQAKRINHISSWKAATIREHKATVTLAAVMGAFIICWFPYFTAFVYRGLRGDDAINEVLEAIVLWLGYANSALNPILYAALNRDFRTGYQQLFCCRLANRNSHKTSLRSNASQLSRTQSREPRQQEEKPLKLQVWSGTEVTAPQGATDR

sst5 = target: T26, sst5 (Homo sapiens, UniProt P35346); assay: GPCR Profiler; type: cell-based
T26 construct: host or cells: Chem-1 cells with Gα15
T26 sequence (P35346 whole entry, species assumed): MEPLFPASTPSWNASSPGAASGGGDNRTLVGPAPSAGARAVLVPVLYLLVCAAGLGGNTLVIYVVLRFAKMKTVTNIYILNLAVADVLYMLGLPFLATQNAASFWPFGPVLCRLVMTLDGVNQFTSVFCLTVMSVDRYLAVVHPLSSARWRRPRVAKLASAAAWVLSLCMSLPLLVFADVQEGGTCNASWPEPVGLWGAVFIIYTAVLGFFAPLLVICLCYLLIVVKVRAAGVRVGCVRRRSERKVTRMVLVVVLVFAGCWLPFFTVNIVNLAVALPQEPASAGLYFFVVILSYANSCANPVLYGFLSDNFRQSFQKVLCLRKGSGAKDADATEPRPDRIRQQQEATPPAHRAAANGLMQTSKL

CCc1ccc2c(c1)C1(NN=C(c3ccccc3)S1)C(=O)N2 (centres unmarked) [OGM2]
inflammatory cell infiltrates in BAL (LPS-induced ALI): reduced inflammatory cell infiltrates in BAL

CCc1ccc2c(c1)C1(NN=C(c3cccc4ccccc34)S1)C(=O)N2 (centres unmarked) [OGM1, 5-ethyl-5′-naphthalen-1-ylspiro[1H-indole-3,2′-3H-1,3,4-thiadiazole]-2-one]
remaining binding at 10 µM (AAK1): 100%
remaining binding at 10 µM (AKT2): 93%
remaining binding at 10 µM (BLK): 97%
remaining binding at 10 µM (CSNK1E): 91%
remaining binding at 10 µM (DMPK): 86%
remaining binding at 10 µM (EPHA8): 100%
remaining binding at 10 µM (FLT3(D835H)): 100%
remaining binding at 10 µM (GSK3A): 78%
remaining binding at 10 µM (HIPK1): 99%
remaining binding at 10 µM (KIT(D816H)): 97%
remaining binding at 10 µM (KIT(D816V)): 100%
remaining binding at 10 µM (OSR1): 92%
remaining binding at 10 µM (p38-gamma): 94%
remaining binding at 10 µM (PDGFRA): 100%
remaining binding at 10 µM (PKN1): 100%
remaining binding at 10 µM (PLK1): 100%
remaining binding at 10 µM [1]: 100%
remaining binding at 10 µM (SRC): 95%
remaining binding at 10 µM (TIE2): 100%
remaining binding at 10 µM (TSSK1B): 79%
Antagonism (5-HT4B; 10 uM): −24.1
Agonism (5-HT4B; 12.5 uM): 4.1
Antagonism (BLY1; 10 uM): −5.5
Agonism (BLY1; 12.5 uM): 0.3
Antagonism (C5aR; 10 uM): −0.7
Agonism (C5aR; 12.5 uM): 3.1
Antagonism (CXCR1; 10 uM): 6.5
Agonism (CXCR1; 12.5 uM): −0.7
Antagonism (GnRH; 10 uM): −2.6
Agonism (GnRH; 12.5 uM): 0.5
Antagonism (H2; 10 uM): 1.3
Agonism (H2; 12.5 uM): 0.1
Antagonism (sst5; 10 uM): −4
Agonism (sst5; 12.5 uM): −0.3
